Counter-ions that a name gives are not always drawn.
target: T1, human O-GlcNAcase (Homo sapiens, UniProt O60502); test: Determination of KI values for inhibition of O-GlcNAcase activity (fluorescence-based hOGA Ki); format: biochemical; conditions: purified human O-GlcNAcase 0.7 nM, 2 mM 4-Methylumbelliferyl N-acetyl-β-D-glucosaminide, pH 7.0, Cheng-Prusoff
T1 sequence (O60502 1-916): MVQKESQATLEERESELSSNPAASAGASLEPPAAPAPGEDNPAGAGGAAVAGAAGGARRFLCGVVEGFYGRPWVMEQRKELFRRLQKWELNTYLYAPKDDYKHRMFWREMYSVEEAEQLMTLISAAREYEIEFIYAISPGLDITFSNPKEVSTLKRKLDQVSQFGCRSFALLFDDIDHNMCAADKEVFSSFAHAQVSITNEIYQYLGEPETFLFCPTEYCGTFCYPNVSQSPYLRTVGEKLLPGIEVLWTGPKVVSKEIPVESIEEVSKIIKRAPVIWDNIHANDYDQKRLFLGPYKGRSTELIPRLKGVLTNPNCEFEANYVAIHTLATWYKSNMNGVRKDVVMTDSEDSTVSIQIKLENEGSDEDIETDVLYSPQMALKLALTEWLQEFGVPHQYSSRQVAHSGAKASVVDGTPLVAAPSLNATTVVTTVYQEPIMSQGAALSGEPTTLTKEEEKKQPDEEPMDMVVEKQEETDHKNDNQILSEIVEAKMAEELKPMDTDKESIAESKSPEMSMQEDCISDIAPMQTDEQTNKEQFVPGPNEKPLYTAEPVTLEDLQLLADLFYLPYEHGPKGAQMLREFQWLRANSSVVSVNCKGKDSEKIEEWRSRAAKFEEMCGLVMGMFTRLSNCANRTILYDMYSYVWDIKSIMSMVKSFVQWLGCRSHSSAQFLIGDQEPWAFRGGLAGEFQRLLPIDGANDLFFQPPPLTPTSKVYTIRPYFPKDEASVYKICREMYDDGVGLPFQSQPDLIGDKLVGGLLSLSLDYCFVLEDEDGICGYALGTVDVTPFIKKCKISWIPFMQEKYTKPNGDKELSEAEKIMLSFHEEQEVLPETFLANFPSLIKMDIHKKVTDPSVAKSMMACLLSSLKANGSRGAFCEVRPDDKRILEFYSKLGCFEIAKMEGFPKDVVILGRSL
Protocol: Experimental procedure for kinetic analyses: Enzymatic reactions were carried out in a reaction containing 50 mM NaH2PO4, 100 mM NaCl and 0.1% BSA (pH 7.0) using 2 mM 4-Methylumbelliferyl N-acetyl-β-D-glucosaminide dihydrate (Sigma M2133) dissolved in ddH2O, as a substrate. The amount of purified human O-GlcNAcase enzyme used in the reaction was 0.7 nM. Test compound of varying concentrations was added to the enzyme prior to initiation of the reaction. The reaction was performed at room temperature in a 96-well plate and was initiated with the addition of substrate. The production of fluorescent product was measured every 60 sec for 45 min with a Tecan Infinite M200 plate-reader with excitation at 355 nm and emission detected at […], with 4-Methylumbelliferone (Sigma M1381) used to produce a standard curve. The slope of product production was determined for each concentration of compound tested and plotted, using standard curve fitting algorithms for sigmoidal dose response curves. The values for a four parameter logistic curve fit of the data were determined.
KI values were determined using the Cheng-Prusoff equation; the Km of O-GlcNAcase for substrate was 0.2 mM.

Compared with `CCNC(=O)[C@H]1N[C@H](CO)[C@@H](O)[C@H](O)[C@@H]1O` [Example 4, (2S,3R,4S,5R,6R)-N-ethyl-3,4,5-trihydroxy-6-(hydroxymethyl)piperidine-2-carboxamide hydrochloride], `CNC(=O)[C@H]1N[C@H](CO)[C@@H](O)[C@H](O)[C@@H]1O` [(2S,3R,4S,5R,6R)-3,4,5-trihydroxy-6-(hydroxymethyl)-N-methylpiperidine-2-carboxamide (hydrochloride salt), reference compound] is 20-fold lower in Ki: 3300 nM for the first, 165 nM for the second.

Compared with `CNC(=O)[C@@H]1[C@@H](O)[C@@H](O)[C@H](O)[C@@H](CO)N1CCCCc1ccccc1` [Example 7, (2S,3R,4S,5R,6R)-3,4,5-trihydroxy-6-(hydroxymethyl)-N-methyl-1-(4-phenylbutyl)piperidine-2-carboxamide], `CNC(=O)[C@@H]1[C@@H](O)[C@@H](O)[C@H](O)[C@@H](CO)N1CCCc1ccccc1` [Example 5, (2S,3R,4S,5R,6R)-3,4,5-trihydroxy-6-(hydroxymethyl)-N-methyl-1-(3-phenylpropyl)piperidine-2-carboxamide] is 6.7-fold higher in Ki: 252 nM for the first, 1700 nM for the second.

First: CNC(=O)[C@@H]1[C@@H](O)[C@@H](O)[C@H](O)[C@@H](CO)N1C [Example 1, (2S,3R,4S,5R,6R)-3,4,5-trihydroxy-6-(hydroxymethyl)-N,1-dimethylpiperidine-2-carboxamide hydrochloride]
Second: CNC(=O)[C@@H]1[C@@H](O)[C@@H](O)[C@H](O)[C@@H](CO)N1CCCCC(C)C [Example 8, (2S,3R,4S,5R,6R)-3,4,5-trihydroxy-6-(hydroxymethyl)-N-methyl-1-(5-methylhexyl)piperidine-2-carboxamide]
The Ki of the first is 2.4-fold higher: 1470 nM for the first, 620 nM for the second. The second binds more tightly here.

Going from `CNC(=O)[C@@H]1[C@@H](O)[C@@H](O)[C@H](O)[C@@H](CO)N1CCCc1ccc(-c2ccccc2)cc1` [Example 3, (2S,3R,4S,5R,6R)-1-(3-([1,1′-biphenyl]-4-yl)propyl)-3,4,5-trihydroxy-6-(hydroxymethyl)-N-methylpiperidine-2-carboxamide] to `CNC(=O)[C@@H]1[C@@H](O)[C@@H](O)[C@H](O)[C@@H](CO)N1C/C=C/c1ccc(-c2ccccc2)cc1` [Example 2, (2S,3R,4S,5R,6R)-1-((E)-3-([1,1′-biphenyl]-4-yl)allyl)-3,4,5-trihydroxy-6-(hydroxymethyl)-N-methylpiperidine-2-carboxamide], the Ki rises from 9.4 nM to 1810 nM (190-fold).

`CCNC(=O)[C@@H]1[C@@H](O)[C@@H](O)[C@H](O)[C@@H](CO)N1CCCc1ccccc1` [Example 6, (2S,3R,4S,5R,6R)-N-ethyl-3,4,5-trihydroxy-6-(hydroxymethyl)-1-(3-phenylpropyl)piperidine-2-carboxamide] showed a Ki of 2500 nM.

test system: not listed separately; test: Determination of apparent permeability (Papp), bi-directional transport in LLC-PK1 cells; format: in vitro ADME; conditions: pig, test compound 1 μM, t=3 h, average of A to B and B to A
Protocol: Bi-directional transport is evaluated in LLC-PK1 cells in order to determine apparent permeability (Papp). LLC-PK1 cells can form a tight monolayer and therefore can be used to assess vectorial transport of compounds from basolateral to apical (B→A) and from apical to basolateral (A→B).
To determine Papp, LLC-PK1 cells are cultured in 96-well transwell culture plates (Millipore). Solutions containing the test compounds (1 μM) are prepared in Hank's Balanced Salt Solution with 10 mM HEPES. Substrate solution (150 μL) is added to either the apical (A) or the basolateral (B) compartment of the culture plate, and buffer (150 μL) is added to the compartment opposite to that containing the compound. At t=3 h, 50 μL samples are removed from both sides of monolayers dosed with test compound and placed in 96 well plates, scintillant (200 μL) or internal standard (100 μL labetolol 1 μM) is added to the samples and concentration is determined by liquid scintillation counting in a MicroBeta Wallac Trilux scintillation counter (Perkin Elmer Life Sciences, Boston, Mass.) or by LCMS/MS (Applied Biosystems SCIEX API 5000 triple quadruple mass spectrometer). [^3H]Verapamil (1 μM) is used as the positive control. The experiment is performed in triplicate.
The apparent permeability, Papp, is calculated by the following formula for samples taken at t=3 h: […]

With `CNC(=O)[C@@H]1[C@@H](O)[C@@H](O)[C@H](O)[C@@H](CO)N1CCCc1ccc(-c2ccccc2)cc1` [Example 3, (2S,3R,4S,5R,6R)-1-(3-([1,1′-biphenyl]-4-yl)propyl)-3,4,5-trihydroxy-6-(hydroxymethyl)-N-methylpiperidine-2-carboxamide] the Papp at 3 h, 1 μM was 3 ×10⁻⁶ cm/s.

— US20170107180A1, “GLYCOSIDASE INHIBITORS AND USES THEREOF” (Alectos Therapeutics Inc., priority 2012, published 2017)
